Measured values published in ChEMBL document CHEMBL1201862, “PubChem BioAssay data set” (2004).
Calls of active or inactive are those of the source.

Key:
[1] = Counterscreen for IDE inhibitors: Luminescence-based cell-based high throughput dose response assay to identify compounds that are cytotoxic to HEK cells. [Related pubchem assays: 434962 (Primary screen (IDE inhibitors in singlicate)), 449730 (Counterscreen (Cytotoxicity in triplicate)), 435028 (Confirmation (IDE inhibitors in triplicate)) …; format: functional; settings: HEK293
Insulin-degrading enzyme = target: T1, Insulin-degrading enzyme (Homo sapiens, UniProt P14735); test: Dose Response: Fluorescence polarization-based cell-based high throughput dose response assay for inhibitors of insulin-degrading enzyme (IDE). [Related pubchem assays: 434962 (Primary screen (IDE inhibitors in singlicate)), 449730 (Counterscreen (Cytotoxicity in triplicate)), 435028 (Confirmation (IDE inhibitors in triplicate)), 434984 (Summary …; format: functional
T1 sequence (P14735 whole entry): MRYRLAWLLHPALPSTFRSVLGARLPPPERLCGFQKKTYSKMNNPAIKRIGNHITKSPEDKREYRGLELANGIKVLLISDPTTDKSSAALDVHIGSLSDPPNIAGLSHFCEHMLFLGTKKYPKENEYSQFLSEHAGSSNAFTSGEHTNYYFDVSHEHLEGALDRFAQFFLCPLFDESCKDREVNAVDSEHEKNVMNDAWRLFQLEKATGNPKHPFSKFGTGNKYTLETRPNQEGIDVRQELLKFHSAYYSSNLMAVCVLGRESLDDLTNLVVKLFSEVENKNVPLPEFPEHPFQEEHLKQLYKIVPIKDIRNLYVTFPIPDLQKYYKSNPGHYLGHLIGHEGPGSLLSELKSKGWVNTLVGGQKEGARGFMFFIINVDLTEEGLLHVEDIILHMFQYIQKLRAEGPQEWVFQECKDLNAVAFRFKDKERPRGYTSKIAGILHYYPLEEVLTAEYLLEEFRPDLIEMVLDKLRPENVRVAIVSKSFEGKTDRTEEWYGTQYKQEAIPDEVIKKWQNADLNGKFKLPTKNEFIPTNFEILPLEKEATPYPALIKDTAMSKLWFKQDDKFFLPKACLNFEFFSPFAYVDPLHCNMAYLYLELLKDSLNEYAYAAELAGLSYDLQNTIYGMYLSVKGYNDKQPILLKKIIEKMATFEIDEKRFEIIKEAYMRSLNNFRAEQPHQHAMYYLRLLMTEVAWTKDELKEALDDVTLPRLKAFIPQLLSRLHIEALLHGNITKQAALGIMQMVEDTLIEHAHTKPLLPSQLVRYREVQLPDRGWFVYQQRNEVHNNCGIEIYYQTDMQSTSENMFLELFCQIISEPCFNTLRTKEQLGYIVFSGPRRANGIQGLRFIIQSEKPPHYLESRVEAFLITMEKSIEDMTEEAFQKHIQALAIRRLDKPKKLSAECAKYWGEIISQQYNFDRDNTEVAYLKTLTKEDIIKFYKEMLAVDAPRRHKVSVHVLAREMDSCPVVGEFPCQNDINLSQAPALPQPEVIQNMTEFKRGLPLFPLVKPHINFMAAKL

[2] = target: G2/mitotic-specific cyclin-B1 (Homo sapiens, UniProt P14635); test: Counterscreen assay for inhibitors of Wee1 degradation: dose response cell-based assay to identify inhibitors of cyclin B degradation. [Related pubchem assays: 1410, 1321 ]; format: functional
Wee1-like protein kinase = Wee1-like protein kinase (Homo sapiens, UniProt P30291); test: Dose Response Cell-based Assay for Inhibitors of Wee1 Degradation. [Related pubchem assays: 1410, 1321 ]; format: functional
[3] = target: T2, Replicative DNA helicase DnaB (Mycobacterium tuberculosis, UniProt P9WMR3); test: DnaB intein splicing inhibitors, dose response, biochemical, cell-free fluorescence (AID 449749); format: functional
T2 sequence (P9WMR3 whole entry): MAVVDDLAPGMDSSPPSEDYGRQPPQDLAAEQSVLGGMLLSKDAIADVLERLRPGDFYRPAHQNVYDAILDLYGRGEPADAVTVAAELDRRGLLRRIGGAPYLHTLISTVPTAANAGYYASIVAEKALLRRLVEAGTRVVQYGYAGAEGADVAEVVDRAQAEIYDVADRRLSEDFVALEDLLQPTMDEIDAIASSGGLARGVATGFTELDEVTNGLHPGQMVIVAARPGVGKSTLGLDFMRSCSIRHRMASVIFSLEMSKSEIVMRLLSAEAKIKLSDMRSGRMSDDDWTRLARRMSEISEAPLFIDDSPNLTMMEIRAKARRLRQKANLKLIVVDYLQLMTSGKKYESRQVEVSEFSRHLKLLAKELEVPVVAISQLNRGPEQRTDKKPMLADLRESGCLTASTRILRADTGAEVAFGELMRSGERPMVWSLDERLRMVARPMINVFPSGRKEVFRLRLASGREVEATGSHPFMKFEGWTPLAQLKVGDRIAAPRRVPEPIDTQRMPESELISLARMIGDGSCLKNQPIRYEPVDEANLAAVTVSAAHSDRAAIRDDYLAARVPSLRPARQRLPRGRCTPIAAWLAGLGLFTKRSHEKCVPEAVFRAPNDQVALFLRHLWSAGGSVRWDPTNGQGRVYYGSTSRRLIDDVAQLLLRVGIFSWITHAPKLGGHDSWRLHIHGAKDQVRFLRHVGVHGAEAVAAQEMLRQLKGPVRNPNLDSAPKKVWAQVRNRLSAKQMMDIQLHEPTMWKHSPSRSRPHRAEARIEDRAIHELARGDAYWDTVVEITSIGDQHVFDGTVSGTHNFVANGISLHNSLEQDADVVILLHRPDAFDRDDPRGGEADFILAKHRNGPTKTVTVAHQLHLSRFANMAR

HT-1080 = test: HT1080 cell viability loss – fluorescence readout (AID 620); format: functional, cell-based; settings: Homo sapiens
[4] = reduced cellular PGC1a acetyl-lysine signal – cell-based, cherry-picked samples, dose response (AID 720514); format: functional;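 note: potency may reflect raised or lowered acetylation signal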
[5] = target: Luciferin 4-monooxygenase (Photinus pyralis, UniProt P08659); test: Counter Screen for Luciferase-based Assay Positives. [Related pubchem assays: 620, 618, 411 ]
Protein RecA = target: T3, Protein RecA (Mycobacterium tuberculosis, UniProt P9WHJ3); test: Fluorescence Cell-Free Homogeneous Dose Retest to Identify Inhibitors of RecA-Intein Splicing Activity. [Related pubchem assays (depositor defined):AID2097, AID2223, AID489010, AID492950]; format: functional
T3 sequence (P9WHJ3 whole entry): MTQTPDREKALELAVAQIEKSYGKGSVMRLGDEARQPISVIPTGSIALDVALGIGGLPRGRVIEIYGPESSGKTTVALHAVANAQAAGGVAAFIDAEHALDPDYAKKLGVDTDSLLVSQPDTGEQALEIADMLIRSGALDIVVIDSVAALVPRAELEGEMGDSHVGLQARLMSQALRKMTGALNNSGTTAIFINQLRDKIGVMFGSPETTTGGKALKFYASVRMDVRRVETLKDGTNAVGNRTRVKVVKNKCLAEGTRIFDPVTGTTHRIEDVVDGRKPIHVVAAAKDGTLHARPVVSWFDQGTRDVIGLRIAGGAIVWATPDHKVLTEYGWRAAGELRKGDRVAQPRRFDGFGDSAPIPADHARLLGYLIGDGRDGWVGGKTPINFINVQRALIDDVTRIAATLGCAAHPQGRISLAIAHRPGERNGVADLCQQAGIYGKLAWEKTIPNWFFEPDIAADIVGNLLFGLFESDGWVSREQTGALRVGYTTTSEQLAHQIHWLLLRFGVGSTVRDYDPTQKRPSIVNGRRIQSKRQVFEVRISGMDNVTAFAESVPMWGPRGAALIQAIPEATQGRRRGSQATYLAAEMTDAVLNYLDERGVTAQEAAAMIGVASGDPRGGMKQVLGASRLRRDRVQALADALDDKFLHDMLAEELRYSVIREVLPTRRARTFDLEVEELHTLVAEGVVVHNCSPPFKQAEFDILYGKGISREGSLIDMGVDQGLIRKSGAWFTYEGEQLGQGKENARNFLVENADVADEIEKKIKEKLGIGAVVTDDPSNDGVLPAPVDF

[6] = Luminescence Cell-Based Dose Retest to Confirm Inhibitors of Cancer Stem Cells. [Related pubchem assays (depositor defined):AID2717, AID2721]; format: functional; settings: Homo sapiens
[7] = target: Mothers against decapentaplegic homolog 3 (Homo sapiens, UniProt P84022); test: blockers of Smad3 complex formation in lysate – cell lysate, secondary confirmation, chemiluminescent ELISA, HEK293 lysate, dose response (AID 1058); format: functional
Chain of Mothers against decapentaplegic homolog 3 (P84022 whole entry): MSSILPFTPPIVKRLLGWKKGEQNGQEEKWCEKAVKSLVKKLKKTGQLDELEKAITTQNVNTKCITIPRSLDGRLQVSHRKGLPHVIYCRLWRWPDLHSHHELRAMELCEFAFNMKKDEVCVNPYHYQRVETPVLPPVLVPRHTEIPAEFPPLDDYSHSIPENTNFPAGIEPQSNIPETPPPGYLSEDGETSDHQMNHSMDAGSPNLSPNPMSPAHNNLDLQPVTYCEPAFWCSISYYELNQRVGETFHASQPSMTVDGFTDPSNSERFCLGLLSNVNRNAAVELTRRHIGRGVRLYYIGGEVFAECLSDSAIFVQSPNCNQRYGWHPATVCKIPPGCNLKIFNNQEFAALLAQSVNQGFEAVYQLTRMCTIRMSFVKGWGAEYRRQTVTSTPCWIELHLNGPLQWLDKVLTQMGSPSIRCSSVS

Chain of Luciferin 4-monooxygenase (P08659 whole entry): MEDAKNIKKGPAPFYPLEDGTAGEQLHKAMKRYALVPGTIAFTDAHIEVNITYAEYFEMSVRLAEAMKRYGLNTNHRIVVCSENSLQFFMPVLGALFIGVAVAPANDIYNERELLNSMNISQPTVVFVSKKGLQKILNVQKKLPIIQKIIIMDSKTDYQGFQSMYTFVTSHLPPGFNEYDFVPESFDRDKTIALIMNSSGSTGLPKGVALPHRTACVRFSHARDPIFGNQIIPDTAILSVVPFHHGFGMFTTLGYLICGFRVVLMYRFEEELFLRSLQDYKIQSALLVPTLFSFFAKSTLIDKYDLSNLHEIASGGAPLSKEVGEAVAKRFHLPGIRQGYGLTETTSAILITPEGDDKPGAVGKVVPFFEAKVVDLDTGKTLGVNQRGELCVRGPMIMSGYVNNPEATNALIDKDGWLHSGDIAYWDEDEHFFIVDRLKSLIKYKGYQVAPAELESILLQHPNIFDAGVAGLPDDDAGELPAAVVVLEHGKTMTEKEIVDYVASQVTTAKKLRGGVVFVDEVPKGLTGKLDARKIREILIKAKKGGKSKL
Chain of Wee1-like protein kinase (P30291 whole entry): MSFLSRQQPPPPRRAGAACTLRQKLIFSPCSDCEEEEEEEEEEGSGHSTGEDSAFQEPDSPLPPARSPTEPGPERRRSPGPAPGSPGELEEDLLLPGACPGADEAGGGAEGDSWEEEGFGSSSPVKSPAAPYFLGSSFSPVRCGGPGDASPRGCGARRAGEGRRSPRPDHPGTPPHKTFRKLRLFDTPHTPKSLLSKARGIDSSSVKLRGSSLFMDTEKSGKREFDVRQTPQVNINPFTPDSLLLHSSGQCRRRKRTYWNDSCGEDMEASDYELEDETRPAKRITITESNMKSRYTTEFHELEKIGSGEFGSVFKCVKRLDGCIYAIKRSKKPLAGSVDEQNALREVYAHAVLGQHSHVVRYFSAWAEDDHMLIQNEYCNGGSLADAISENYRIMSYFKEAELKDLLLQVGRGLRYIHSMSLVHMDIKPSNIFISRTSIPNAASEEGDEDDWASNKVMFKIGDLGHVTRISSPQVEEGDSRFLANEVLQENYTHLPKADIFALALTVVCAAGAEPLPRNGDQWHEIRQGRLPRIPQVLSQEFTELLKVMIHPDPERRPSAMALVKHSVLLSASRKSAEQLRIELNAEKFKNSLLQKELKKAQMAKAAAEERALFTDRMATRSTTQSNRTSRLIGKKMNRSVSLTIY
Chain of G2/mitotic-specific cyclin-B1 (P14635 whole entry): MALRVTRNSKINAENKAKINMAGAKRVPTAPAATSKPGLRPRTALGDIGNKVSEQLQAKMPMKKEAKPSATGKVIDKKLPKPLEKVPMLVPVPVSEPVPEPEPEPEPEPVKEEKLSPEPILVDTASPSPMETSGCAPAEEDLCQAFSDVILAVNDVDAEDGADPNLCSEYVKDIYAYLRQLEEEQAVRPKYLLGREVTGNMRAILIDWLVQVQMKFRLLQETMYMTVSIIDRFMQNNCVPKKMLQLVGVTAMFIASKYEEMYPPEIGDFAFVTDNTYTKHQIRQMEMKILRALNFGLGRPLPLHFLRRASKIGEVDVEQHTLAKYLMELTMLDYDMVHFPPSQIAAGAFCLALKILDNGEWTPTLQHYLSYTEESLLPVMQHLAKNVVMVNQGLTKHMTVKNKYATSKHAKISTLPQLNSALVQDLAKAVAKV

In the case of O=C(Nc1cccc(C(F)(F)F)c1)c1csc(-c2ccncc2)n1, the IC50 [1] is reported as 21.2 µM (not active) and the IC50 (Insulin-degrading enzyme) is reported as 5.34 µM (active).

In the case of O=C(/C=C/c1ccccc1)Nc1ccc(Cl)cn1, the EC50 [2] is reported as > 49.7 µM (not active) and the EC50 (Wee1-like protein kinase) is reported as > 49.7 µM (not active).

In the case of CCCCOc1ccc(C(=O)C(CN2CCOCC2)c2ccccc2)cc1 (stereo unspecified), the AC50 [3] is reported as 12.6 µM (active), the EC50 (HT-1080) is reported as 30 µM (active) and the AC50 [4] is reported as 4.4 µM (active). The EC50 [5] was 3.7 µM (active), the EC50 (Protein RecA) was 26.7 µM (inconclusive) and the AC50 [6] was 5.12 µM (active).

For Oc1cc2c(cc1C(c1ccc3c(c1)OCO3)N1CCN(C(c3ccc4c(c3)OCO4)c3cc4c(cc3O)OCO4)CC1)OCO2 (stereo unspecified), the IC50 [7] was 14.1 µM (not active).
